# Reference: article PMC10553830, “Functional and structural analyses reveal that a dual domain sialidase protects bacteria from complement killing through desialylation of complement factors” (PLOS Pathogens, 2023)
# Legend:
# [1] = target: T1, PG0352 (Porphyromonas gingivalis, UniProt Q7MX62); experiment: X-ray crystal structure, […] Å (soaked); format: binding; conditions: 10 mM soak, 20 min; sialidase active site; sialidase inhibitor
# T1 construct: gene PG_0352; N-terminal His6, residues 31-526 (CBM 31-176 plus sialidase domain 177-523), signal peptide removed, codon-optimized, pQE80L, E. coli BL21-Star (DE3); monomer, ~52 kDa by SEC
# T1 sequence (Q7MX62 entry or part of it): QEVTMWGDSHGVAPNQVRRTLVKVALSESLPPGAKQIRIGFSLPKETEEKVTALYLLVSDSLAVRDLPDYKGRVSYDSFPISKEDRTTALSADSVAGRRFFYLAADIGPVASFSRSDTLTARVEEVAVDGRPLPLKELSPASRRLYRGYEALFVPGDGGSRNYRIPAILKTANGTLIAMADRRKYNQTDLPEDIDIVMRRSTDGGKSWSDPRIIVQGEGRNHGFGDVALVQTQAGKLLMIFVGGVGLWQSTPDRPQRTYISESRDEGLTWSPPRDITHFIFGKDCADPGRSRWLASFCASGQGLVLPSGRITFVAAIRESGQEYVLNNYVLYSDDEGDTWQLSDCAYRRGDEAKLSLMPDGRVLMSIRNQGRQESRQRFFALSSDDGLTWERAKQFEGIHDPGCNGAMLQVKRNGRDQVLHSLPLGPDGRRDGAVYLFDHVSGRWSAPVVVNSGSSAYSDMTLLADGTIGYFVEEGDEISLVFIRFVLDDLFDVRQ
# [2] = test system: CC(=O)N[C@H]1[C@H]([C@H](O)[C@H](O)CO)O[C@@](Oc2ccc3c(C)cc(=O)oc3c2)(C(=O)O)C[C@@H]1O; experiment: purified protein; conditions: 10 mM sodium citrate, pH 5.0, 37 °C, 1 min, 5 nM enzyme
# [3] = test system: Cc1cc(=O)oc2cc(O[C@@]3(C(=O)O)C[C@H](O)[C@@H](NC(=O)CO)[C@H]([C@H](O)[C@H](O)CO)O3)ccc12; experiment: purified protein; conditions: 10 mM sodium citrate, pH 5.0, 37 °C, 1 min, 5 nM enzyme
# [4] = target: T1, PG0352; experiment: X-ray crystal structure, […] Å (co-crystallized); format: binding; conditions: 5 mM ligand; bound in CBM cleft, not the active site
# [5] = target: T1, PG0352; experiment: X-ray crystal structure, […] Å (soaked); format: binding; conditions: 27 mM soak, 60 min; sialidase active site; alpha anomer
compound,measurement,setting,value
CC(=O)N[C@H]1[C@H]([C@H](O)[C@H](O)CO)OC(C(=O)O)=C[C@@H]1O [DANA],"X-ray crystal structure, 2.14 Å (soaked)",[1],DANA binds within the sialidase active site in a similar conformation
PG0352 (Porphyromonas gingivalis W83),Km,[2],39.31 ± 6.540 µM
same,Km,[3],81.65 ± 20.56 µM
OCC1(O)OC[C@@H](O)[C@@H](O)[C@@H]1O (some centres unmarked) [fructose],"X-ray crystal structure, 2.29 Å (co-crystallized)",[4],we co-crystallized PG0352 with fructose and determined the structure of the complex
CC(=O)N[C@H]1[C@H]([C@H](O)[C@H](O)CO)OC(O)(C(=O)O)C[C@@H]1O (some centres unmarked) [Neu5Ac],"X-ray crystal structure, 1.93 Å (soaked)",[5],Clear electron density was visible for Neu5Ac bound in its alpha anomeric form
